Data on three compounds can be found in ChEMBL document CHEMBL4765335, “Privileged scaffold-based design to identify a novel drug-like 5-HT receptor-preferring agonist to target Fragile X syndrome” (Eur J Med Chem, 2020).

The data set is described as follows: in vitro. Particulars: rat, liver microsomes.
For `COc1ccc(-c2ccccc2N2CCN(CCCCOc3ccccc3C#N)CC2)cc1`, the fraction remaining at 0.5 h, 10 µM was determined as 7%.
The same measure for `COc1ccc(-c2ccccc2C2CCN(CCCCOc3cnccn3)CC2)cc1`: 6%; for `COc1ccc(-c2ccccc2N2CCN(C[C@@H](O)COc3ccc(-c4cn5ccccc5n4)cc3)CC2)cc1`: 48%.

As usually defined, the share remaining is what is left of the initial amount, in per cent. High values mean less turnover, low ones more turnover.
